# Columns and labels:
# Experiment in all cases: KinaseProfiler off-target kinase profiling
# Type in all cases: biochemical
# Settings in all cases: 10 μM, ATP near Km
# [1] = target: T1, Flt4 (Homo sapiens, UniProt P35916)
# T1 construct: purchased Millipore, Inc. (KinaseProfiler service)
# Experimental: (§1) A representative compound of the invention (Example 48) was tested for off-target kinase activity at a concentration of 10 μM by Millipore, Inc. in their KinaseProfiler™ service against all the kinases available in their full kinase panel. The compound was run in duplicate at a concentration of ATP near the Km for each individual kinase according to Millipore's specifications. The results are shown in Table B. Data are reported as percent of control (POC) and are the average of the two replicates.
# [2] = target: T2, ROCK-II (Homo sapiens, UniProt O75116)
# T2 construct: purchased Millipore, Inc. (KinaseProfiler service)
# T2 sequence (O75116 whole entry): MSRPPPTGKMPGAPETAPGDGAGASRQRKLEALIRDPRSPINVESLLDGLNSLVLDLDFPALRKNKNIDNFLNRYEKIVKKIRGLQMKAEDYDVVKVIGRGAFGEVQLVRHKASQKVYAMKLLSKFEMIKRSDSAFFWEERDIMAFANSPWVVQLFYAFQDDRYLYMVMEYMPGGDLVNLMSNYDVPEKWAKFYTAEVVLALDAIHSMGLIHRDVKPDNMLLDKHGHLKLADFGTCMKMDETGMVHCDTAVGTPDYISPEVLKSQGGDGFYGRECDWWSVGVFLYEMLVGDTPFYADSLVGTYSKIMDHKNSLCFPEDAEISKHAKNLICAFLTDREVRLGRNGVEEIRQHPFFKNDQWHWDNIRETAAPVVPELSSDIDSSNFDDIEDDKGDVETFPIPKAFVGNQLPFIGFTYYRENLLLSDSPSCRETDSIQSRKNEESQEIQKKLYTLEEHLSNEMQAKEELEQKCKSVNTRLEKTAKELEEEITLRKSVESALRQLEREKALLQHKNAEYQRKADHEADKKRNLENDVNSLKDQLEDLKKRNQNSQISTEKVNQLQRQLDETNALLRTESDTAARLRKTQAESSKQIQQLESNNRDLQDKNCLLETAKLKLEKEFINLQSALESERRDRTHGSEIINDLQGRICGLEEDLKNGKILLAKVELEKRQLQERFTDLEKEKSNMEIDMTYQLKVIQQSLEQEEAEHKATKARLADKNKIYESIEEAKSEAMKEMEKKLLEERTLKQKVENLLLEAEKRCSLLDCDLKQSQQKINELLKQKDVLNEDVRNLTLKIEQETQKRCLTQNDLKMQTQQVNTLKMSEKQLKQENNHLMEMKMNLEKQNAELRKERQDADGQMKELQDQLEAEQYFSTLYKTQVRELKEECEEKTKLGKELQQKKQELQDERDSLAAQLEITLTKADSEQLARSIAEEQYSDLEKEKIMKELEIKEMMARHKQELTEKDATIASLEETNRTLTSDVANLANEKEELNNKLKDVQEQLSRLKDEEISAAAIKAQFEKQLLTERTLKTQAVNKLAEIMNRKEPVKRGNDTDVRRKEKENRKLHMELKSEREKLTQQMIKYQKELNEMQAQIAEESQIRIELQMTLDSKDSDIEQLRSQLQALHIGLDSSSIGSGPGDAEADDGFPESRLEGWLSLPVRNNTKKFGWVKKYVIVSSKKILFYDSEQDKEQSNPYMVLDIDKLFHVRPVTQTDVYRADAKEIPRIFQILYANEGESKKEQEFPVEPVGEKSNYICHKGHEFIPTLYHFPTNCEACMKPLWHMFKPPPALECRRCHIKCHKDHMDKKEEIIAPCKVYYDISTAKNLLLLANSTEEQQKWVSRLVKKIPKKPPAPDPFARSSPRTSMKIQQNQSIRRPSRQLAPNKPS
# Experimental: as §1
# [3] = target: T3, IKKalpha (Homo sapiens, UniProt O15111)
# T3 construct: purchased Millipore, Inc. (KinaseProfiler service)
# Experimental: as §1
# [4] = target: T4, PDGFRbeta (Homo sapiens, UniProt P09619)
# T4 construct: purchased Millipore, Inc. (KinaseProfiler service)
# Experimental: as §1
# [5] = target: T5, DMPK (Homo sapiens, UniProt Q09013)
# T5 construct: purchased Millipore, Inc. (KinaseProfiler service)
# Experimental: as §1
# [6] = target: T6, PKAC-alpha (Homo sapiens, UniProt P17612)
# T6 construct: purchased Millipore, Inc. (KinaseProfiler service)
# Experimental: as §1
# [7] = target: T7, PTK6 (Homo sapiens, UniProt Q13882)
# T7 construct: purchased Millipore, Inc. (KinaseProfiler service)
# Experimental: as §1
# [8] = target: T8, Plk2 (Homo sapiens, UniProt Q9NYY3)
# T8 construct: purchased Millipore, Inc. (KinaseProfiler service)
# Experimental: as §1
# [9] = target: T9, PRK2 (Homo sapiens, UniProt Q16513)
# T9 construct: purchased Millipore, Inc. (KinaseProfiler service)
# T9 sequence (Q16513 whole entry): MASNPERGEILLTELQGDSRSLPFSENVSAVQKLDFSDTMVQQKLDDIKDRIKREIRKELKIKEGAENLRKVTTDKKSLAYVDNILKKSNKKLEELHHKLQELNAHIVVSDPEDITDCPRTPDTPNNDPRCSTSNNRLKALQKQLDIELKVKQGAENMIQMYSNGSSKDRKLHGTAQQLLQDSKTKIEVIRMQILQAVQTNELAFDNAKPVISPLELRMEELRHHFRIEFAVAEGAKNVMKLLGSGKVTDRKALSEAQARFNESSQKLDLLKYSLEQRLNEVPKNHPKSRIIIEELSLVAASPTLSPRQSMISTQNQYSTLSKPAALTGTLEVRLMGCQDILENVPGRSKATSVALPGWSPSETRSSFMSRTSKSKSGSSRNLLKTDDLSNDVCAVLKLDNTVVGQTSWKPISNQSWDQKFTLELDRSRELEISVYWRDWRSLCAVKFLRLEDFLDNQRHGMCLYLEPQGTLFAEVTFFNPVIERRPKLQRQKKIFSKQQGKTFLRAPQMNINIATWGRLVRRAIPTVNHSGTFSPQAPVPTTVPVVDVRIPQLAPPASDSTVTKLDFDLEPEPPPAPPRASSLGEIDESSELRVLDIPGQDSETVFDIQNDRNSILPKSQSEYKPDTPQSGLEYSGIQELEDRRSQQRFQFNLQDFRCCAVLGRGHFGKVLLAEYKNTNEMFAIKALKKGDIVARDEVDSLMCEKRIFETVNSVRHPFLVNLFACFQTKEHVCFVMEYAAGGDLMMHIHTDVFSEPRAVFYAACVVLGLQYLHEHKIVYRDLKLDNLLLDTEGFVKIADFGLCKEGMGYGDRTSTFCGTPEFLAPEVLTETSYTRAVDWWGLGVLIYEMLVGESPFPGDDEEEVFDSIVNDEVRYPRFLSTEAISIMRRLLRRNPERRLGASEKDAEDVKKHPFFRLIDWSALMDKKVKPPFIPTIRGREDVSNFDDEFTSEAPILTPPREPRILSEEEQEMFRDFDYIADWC
# Experimental: as §1
# [10] = target: T10, MSK2 (Homo sapiens, UniProt O75676)
# T10 construct: purchased Millipore, Inc. (KinaseProfiler service)
# Experimental: as §1
# [11] = target: T11, RIPK2 (Homo sapiens, UniProt O43353)
# T11 construct: purchased Millipore, Inc. (KinaseProfiler service)
# Experimental: as §1
# [12] = target: T12, KDR (Homo sapiens, UniProt P35968)
# T12 construct: purchased Millipore, Inc. (KinaseProfiler service)
# T12 sequence (P35968 20-1356): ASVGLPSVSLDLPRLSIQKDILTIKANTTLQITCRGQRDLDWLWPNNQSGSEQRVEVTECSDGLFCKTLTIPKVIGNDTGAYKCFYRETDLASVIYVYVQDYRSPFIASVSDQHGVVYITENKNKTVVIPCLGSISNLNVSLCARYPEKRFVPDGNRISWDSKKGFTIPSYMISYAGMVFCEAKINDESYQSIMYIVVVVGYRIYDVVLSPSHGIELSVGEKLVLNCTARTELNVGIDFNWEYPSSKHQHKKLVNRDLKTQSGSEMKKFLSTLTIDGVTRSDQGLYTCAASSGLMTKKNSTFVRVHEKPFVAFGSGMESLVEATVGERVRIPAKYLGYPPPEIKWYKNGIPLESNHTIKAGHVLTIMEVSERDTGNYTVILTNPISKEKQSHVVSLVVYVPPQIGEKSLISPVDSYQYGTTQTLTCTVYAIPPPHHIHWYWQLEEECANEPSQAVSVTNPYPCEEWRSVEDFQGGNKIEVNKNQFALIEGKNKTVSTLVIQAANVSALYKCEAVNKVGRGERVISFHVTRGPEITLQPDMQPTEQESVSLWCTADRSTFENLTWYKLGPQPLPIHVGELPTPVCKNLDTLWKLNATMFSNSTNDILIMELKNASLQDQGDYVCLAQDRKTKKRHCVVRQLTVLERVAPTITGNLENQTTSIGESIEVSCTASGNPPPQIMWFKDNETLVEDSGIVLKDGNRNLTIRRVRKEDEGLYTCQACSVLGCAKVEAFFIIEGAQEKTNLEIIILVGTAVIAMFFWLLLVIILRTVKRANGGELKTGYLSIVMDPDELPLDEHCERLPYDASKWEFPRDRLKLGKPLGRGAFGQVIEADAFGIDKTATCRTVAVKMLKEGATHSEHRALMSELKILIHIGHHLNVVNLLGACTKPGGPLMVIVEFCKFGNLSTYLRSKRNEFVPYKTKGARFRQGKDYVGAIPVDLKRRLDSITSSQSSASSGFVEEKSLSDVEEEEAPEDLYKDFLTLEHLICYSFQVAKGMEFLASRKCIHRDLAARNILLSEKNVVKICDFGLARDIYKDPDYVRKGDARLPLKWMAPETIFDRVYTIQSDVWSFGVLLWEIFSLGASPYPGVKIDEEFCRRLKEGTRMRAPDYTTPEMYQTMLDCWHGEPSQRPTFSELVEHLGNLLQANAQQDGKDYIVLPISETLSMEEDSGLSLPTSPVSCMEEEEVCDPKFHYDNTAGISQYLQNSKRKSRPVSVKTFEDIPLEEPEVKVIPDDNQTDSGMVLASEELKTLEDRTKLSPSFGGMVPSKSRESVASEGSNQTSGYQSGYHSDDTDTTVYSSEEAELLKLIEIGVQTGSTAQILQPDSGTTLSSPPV
# Experimental: as §1
# [13] = target: T13, TSSK2 (Homo sapiens, UniProt Q96PF2)
# T13 construct: purchased Millipore, Inc. (KinaseProfiler service)
# Experimental: as §1
# [14] = target: T14, IRAK1 (Homo sapiens, UniProt P51617)
# T14 construct: purchased Millipore, Inc. (KinaseProfiler service)
# T14 sequence (P51617 whole entry): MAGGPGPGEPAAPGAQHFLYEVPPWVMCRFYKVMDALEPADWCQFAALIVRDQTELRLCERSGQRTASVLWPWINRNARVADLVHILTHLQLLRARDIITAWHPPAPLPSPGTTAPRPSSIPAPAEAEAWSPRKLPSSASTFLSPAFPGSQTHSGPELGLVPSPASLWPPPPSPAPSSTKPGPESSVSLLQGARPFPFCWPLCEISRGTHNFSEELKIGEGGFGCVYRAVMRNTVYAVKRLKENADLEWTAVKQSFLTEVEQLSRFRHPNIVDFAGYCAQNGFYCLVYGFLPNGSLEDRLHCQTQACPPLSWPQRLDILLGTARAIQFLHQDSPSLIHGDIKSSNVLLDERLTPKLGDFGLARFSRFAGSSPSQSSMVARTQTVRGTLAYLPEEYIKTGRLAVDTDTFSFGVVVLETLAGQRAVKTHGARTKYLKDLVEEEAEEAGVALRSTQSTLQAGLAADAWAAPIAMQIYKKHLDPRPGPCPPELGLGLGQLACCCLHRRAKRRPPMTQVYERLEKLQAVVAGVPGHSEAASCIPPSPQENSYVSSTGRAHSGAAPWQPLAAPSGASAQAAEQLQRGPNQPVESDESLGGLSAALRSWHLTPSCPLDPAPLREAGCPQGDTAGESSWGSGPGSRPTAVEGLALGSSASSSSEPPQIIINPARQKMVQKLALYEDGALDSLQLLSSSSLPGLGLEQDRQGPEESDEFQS
# Experimental: as §1
# [15] = target: T15, CAMK1 (Homo sapiens, UniProt Q14012)
# T15 construct: purchased Millipore, Inc. (KinaseProfiler service)
# Experimental: as §1
# [16] = target: T16, Flt1 (Homo sapiens, UniProt P17948)
# T16 construct: purchased Millipore, Inc. (KinaseProfiler service)
# Experimental: as §1
# [17] = target: T17, MARK2 (Homo sapiens, UniProt Q7KZI7)
# T17 construct: purchased Millipore, Inc. (KinaseProfiler service)
# Experimental: as §1
# [18] = target: T18, SGK1 (Homo sapiens, UniProt O00141, S422D)
# T18 construct: purchased Millipore, Inc. (KinaseProfiler service)
# Experimental: as §1
# [19] = target: T19, TAO3 (Homo sapiens, UniProt Q9H2K8)
# T19 construct: purchased Millipore, Inc. (KinaseProfiler service)
# Experimental: as §1
# [20] = target: T20, CHK2 (Homo sapiens, UniProt O96017)
# T20 construct: purchased Millipore, Inc. (KinaseProfiler service)
# Experimental: as §1
# [21] = target: T21, LIMK1 (Homo sapiens, UniProt P53667)
# T21 construct: purchased Millipore, Inc. (KinaseProfiler service)
# Experimental: as §1
# [22] = target: T22, MST3 (Homo sapiens, UniProt Q9Y6E0)
# T22 construct: purchased Millipore, Inc. (KinaseProfiler service)
# T22 sequence (Q9Y6E0 whole entry): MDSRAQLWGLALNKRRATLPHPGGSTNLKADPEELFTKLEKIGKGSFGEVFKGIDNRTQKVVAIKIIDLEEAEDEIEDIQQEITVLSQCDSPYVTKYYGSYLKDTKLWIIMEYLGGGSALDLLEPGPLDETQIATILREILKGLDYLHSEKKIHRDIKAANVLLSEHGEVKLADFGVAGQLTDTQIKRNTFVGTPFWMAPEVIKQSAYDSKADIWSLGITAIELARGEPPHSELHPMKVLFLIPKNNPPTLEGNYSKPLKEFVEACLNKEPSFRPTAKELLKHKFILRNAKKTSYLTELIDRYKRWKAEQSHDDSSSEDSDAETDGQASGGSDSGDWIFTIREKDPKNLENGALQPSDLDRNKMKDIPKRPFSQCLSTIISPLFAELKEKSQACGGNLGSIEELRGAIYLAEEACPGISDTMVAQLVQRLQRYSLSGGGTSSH
# Experimental: as §1
# [23] = target: T23, AKT2 (Homo sapiens, UniProt P31751)
# T23 construct: purchased Millipore, Inc. (KinaseProfiler service)
# Experimental: as §1
# [24] = target: T24, ULK3 (Homo sapiens, UniProt Q6PHR2)
# T24 construct: purchased Millipore, Inc. (KinaseProfiler service)
# Experimental: as §1
# [25] = target: T25, SGK2 (Homo sapiens, UniProt Q9HBY8)
# T25 construct: purchased Millipore, Inc. (KinaseProfiler service)
# Experimental: as §1
# [26] = target: T26, IGF-1R (Homo sapiens, UniProt P08069)
# T26 construct: purchased Millipore, Inc. (KinaseProfiler service)
# Experimental: as §1
# [27] = target: T27, BTK (Homo sapiens, UniProt Q06187)
# T27 construct: purchased Millipore, Inc. (KinaseProfiler service)
# Experimental: as §1
# [28] = target: T28, Rsk2 (Homo sapiens, UniProt P51812)
# T28 construct: purchased Millipore, Inc. (KinaseProfiler service)
# Experimental: as §1
# [29] = target: T29, NEK7 (Homo sapiens, UniProt Q8TDX7)
# T29 construct: purchased Millipore, Inc. (KinaseProfiler service)
# Experimental: as §1
# [30] = target: T30, PKCtheta (Homo sapiens, UniProt Q04759)
# T30 construct: purchased Millipore, Inc. (KinaseProfiler service)
# Experimental: as §1
# [31] = target: T31, Fyn (Homo sapiens, UniProt P06241)
# T31 construct: purchased Millipore, Inc. (KinaseProfiler service)
# Experimental: as §1
# [32] = target: T32, MARK1 (Homo sapiens, UniProt Q9P0L2)
# T32 construct: purchased Millipore, Inc. (KinaseProfiler service)
# Experimental: as §1
# [33] = target: T33, Ron (Homo sapiens, UniProt Q04912)
# T33 construct: purchased Millipore, Inc. (KinaseProfiler service)
# Experimental: as §1
# [34] = target: T34, PKD1 (Homo sapiens, UniProt Q15139)
# T34 construct: purchased Millipore, Inc. (KinaseProfiler service)
# Experimental: as §1
# [35] = target: T35, TNK2 (Homo sapiens, UniProt Q07912)
# T35 construct: purchased Millipore, Inc. (KinaseProfiler service)
# Experimental: as §1
# [36] = target: T36, PKCalpha (Homo sapiens, UniProt P17252)
# T36 construct: purchased Millipore, Inc. (KinaseProfiler service)
# Experimental: as §1
# [37] = target: T37, CK1gamma3 (Homo sapiens, UniProt Q9Y6M4)
# T37 construct: purchased Millipore, Inc. (KinaseProfiler service)
# Experimental: as §1
# [38] = target: T38, Mer (Homo sapiens, UniProt Q12866)
# T38 construct: purchased Millipore, Inc. (KinaseProfiler service)
# Experimental: as §1
# [39] = target: T39, FAK2 (Homo sapiens, UniProt Q14289)
# T39 construct: purchased Millipore, Inc. (KinaseProfiler service)
# Experimental: as §1
# [40] = target: T40, mTOR/FKBP12 (Homo sapiens, UniProt P42345)
# T40 construct: purchased Millipore, Inc. (KinaseProfiler service)
# Experimental: as §1
# [41] = target: T41, Fes (Homo sapiens, UniProt P07332)
# T41 construct: purchased Millipore, Inc. (KinaseProfiler service)
# Experimental: as §1
smiles,measurement,setting,value
"COCCN1C[C@@H](NC(=O)Nc2sc(C(C)C)nc2-c2ccccc2)[C@H](c2ccccc2)C1 [Example 48, 1-(2-isopropyl-4-phenylthiazol-5-yl)-3-((3S,4R)-1-(2-methoxyethyl)-4-phenylpyrrolidin-3-yl)urea]",Avg POC,[1],103% of control
same,Avg POC,[2],104.5% of control
same,Avg POC,[3],112% of control
same,Avg POC,[4],103.5% of control
same,Avg POC,[5],106% of control
same,Avg POC,[6],98.5% of control
same,Avg POC,[7],99.5% of control
same,Avg POC,[8],99.5% of control
same,Avg POC,[9],111% of control
same,Avg POC,[10],103.5% of control
same,Avg POC,[11],108% of control
same,Avg POC,[12],104% of control
same,Avg POC,[13],124% of control
same,Avg POC,[14],100.5% of control
same,Avg POC,[15],104.5% of control
same,Avg POC,[16],96.5% of control
same,Avg POC,[17],93% of control
same,Avg POC,[18],125% of control
same,Avg POC,[19],105.5% of control
same,Avg POC,[20],107.5% of control
same,Avg POC,[21],104% of control
same,Avg POC,[22],97% of control
same,Avg POC,[23],148% of control
same,Avg POC,[24],100% of control
same,Avg POC,[25],121.5% of control
same,Avg POC,[26],85.5% of control
same,Avg POC,[27],97.5% of control
same,Avg POC,[28],134% of control
same,Avg POC,[29],107% of control
same,Avg POC,[30],108.5% of control
same,Avg POC,[31],108.5% of control
same,Avg POC,[32],113% of control
same,Avg POC,[33],105.5% of control
same,Avg POC,[34],94.5% of control
same,Avg POC,[35],99.5% of control
same,Avg POC,[36],106.5% of control
same,Avg POC,[37],110% of control
same,Avg POC,[38],126.5% of control
same,Avg POC,[39],107.5% of control
same,Avg POC,[40],111.5% of control
same,Avg POC,[41],86.5% of control

# From patent US9828360B2 (Array BioPharma Inc., priority 2012, dated 2017)
